“And” between values parts separate entries of the source, which are not always exact repeats. Identical values can stand only once.
Assays:
[1] = Water sorption / dynamic vapor sorption (DVS) hygroscopicity; assay type: physicochemical
Protocol: The pKa value of Compound I free base was calculated (ACD Labs pKa DB, v10.0) as 2.12±0.33. Therefore, Compound I free base was considered as a very weak base that could be protonated by strong acids. […] A sample of Compound I free base was analyzed by powder x-ray diffraction and found to be crystalline without any readily detectable amorphous content. […] (onset temperature).
The maximum water uptake for the amorphous salt was about 40% whereas the maximum water uptake for the crystalline di-hydrochloride salt was higher, with about 54% uptake.
The hygroscopic nature of the besylate salt was examined by dynamic vapor sorption analysis (DVS). […] Below 80% relative humidity not much water was adsorbed.

[2] = Solubility in pure water at 25° C. with PXRD of solid residues; assay type: physicochemical
Protocol: Using a similar strategy as described above, these salts were prepared by evaporation from a solution of free base and acid in a solvent (e.g., methanol-dichloromethane 1:1, ethyl acetate-dichloromethane 1:2, isopropanol, and the like). If necessary, an amorphous salt produced in this way was crystallized by stirring the amorphous material in an appropriate solvent (e.g., ethyl acetate, acetonitrile, and the like).

[3] = Example 19 crossover pharmacokinetics of four oral tablet formulations in fasted dogs; assay type: in vivo, beagle dogs; details: Example 19, fasted dogs, 200 mg tablet PO; for concentration at 1 h: read-out: Plasma concentration of Compound I at 1 hour; for concentration at 24 h: read-out: Plasma concentration of Compound I at 24 hours
Protocol: (§1) Pharmacokinetics parameters of formulations of Compound I and its salts in dogs were determined by orally administering a test formulation tablet at 200 mg of active (Compound I or salt) per dog.
(§2) Blood samples were taken at various times after administration, plasma prepared, and submitted to analysis for parent drug using a qualified LC-MS-MS assay. Pharmacokinetics parameters derived from the plasma analytical data were determined using non-compartmental analysis.
Pharmacokinetics of Compound I was determined in pentagastrin-pretreated male beagle dogs following a single oral (PO) administration at 200 mg/tablet/dog in a 4-phase crossover study with a washout period of at least 7 days in between each phase. Five male non-naive purebred beagle dogs were used in each phase of study. All dogs were pretreated with pentagastrin (6 μg/kg intramuscular administrations) approximately 30 minutes before administration of test article.
Four tablet formulations of test article were assessed, each containing 200 mg test article (free base equivalent). Animals were fasted overnight prior to PO dosing through approximately 4 hours postdose. The tablet dose was administered orally, followed by approximately 10 mL of RO (reverse osmosis) water. Phase 1 animals were given tablets containing Compound I in nanosuspension formulation as described above, phase 2 animals were given tablets containing Compound I in jet-milled form as described above, and phase 4 animals received tablets containing Compound I mono-tosylate salt as described above. In phase 3, tablets including an amorphous solid dispersion as described above were crushed and suspended in water, then dosed to the animals. Each animal received one triturated tablet, which was administered orally by gavage as an aqueous suspension formulation. Blood samples were collected predose and at 0.25, 0.5 1, 2, 4, 8, 24, 36 and 48 hours after the oral dose. Plasma was harvested, and the concentration of Compound I in each sample was determined by a non-validated LC/MS/MS assay. The assay limit of quantitation was 1.02 to 5.1 ng/mL for Compound I.
Mean Compound I concentrations measured in plasma were used to construct semi-logarithmic plasma concentration-time curves (FIG. 13). Pharmacokinetic analysis was performed using a non-compartmental method.

[4] = Example 20 crossover pharmacokinetics of two oral tablet formulations in dogs under fed conditions; assay type: in vivo, beagle dogs; design: Plasma concentration of Compound I at 24 hours / Plasma concentration of Compound I at 36 hours / Plasma concentration of Compound I at 0.5 hours / Plasma concentration of Compound I at 1 hour / Plasma concentration of Compound I at 2 hours: unit: ng/mL; details: 200 mg tablet PO
Protocol: as §1, §2
Pharmacokinetics of Compound I were determined in pentagastrin-pretreated male beagle dogs following a single oral (PO) administration at 200 mg/tablet/dog in a 2-phase crossover study with a washout period of at least 7 days in between each phase. Six male, non-naive, purebred beagle dogs were used in each phase of the 2-phase crossover study. All dogs were pretreated with pentagastrin (6 μg/kg intramuscular administrations) approximately 30 minutes before test article administration.
Two tablet formulations (nanosuspension and mono-tosylate salt, as described above) of test article were assessed. Phase 1 animals were given tablets containing Compound I nanosuspension. Phase 2 animals were given tablets containing Compound I mono-tosylate salt. Animals in both phases were fasted overnight through approximately 4 hours postdose, and received a 100-mL volume of homogenized Food and Drug Administration (FDA) high fat diet by oral gavage at approximately 30 minutes prior to test article administration, followed by a 7 to 10-mL flush with water. Blood samples were collected pre-dose and at 0.25. 0.5, 1. 2. 4. 8, 24, 36, and 48 hours after the oral dose. Plasma was harvested, and the concentration of Compound I in each plasma sample was determined by an LC/MS/MS assay. The assay lower limit of quantitation was 20 ng/mL for Compound I.
Mean Compound I concentrations measured in plasma were used to construct semi-logarithmic plasma concentration-time curves (FIG. 14). Pharmacokinetic analysis was performed using non-compartmental methods.

[5] = individual subjects, LOQ 1.02 to 5.1 ng/mL, mono-tosylate salt
[6] = individual subjects, mono-tosylate salt
[7] = male, beagle, dog, plasma, po, 200 mg/tablet/dog, individual subjects, LOQ 1.02 to 5.1 ng/mL
[8] = male, beagle, dog, plasma, po, 200 mg/tablet/dog, mean, LOQ 1.02 to 5.1 ng/mL
[9] = Example 20, fed dogs (high fat diet), individual subjects, mono-tosylate salt
[10] = Example 20, fed dogs, individual subjects, LLOQ 20 ng/mL, mono-tosylate salt
[11] = male, beagle, dog, plasma, po, 200 mg, Example 20, fed dogs (high fat diet), mean

## Cc1ccc(S(=O)(=O)O)cc1.Cn1cc(-c2cn(-c3ccc(OC(F)(F)F)cc3)c(=O)c3ncn(C)c23)cn1 [mono-tosylate, 1-methyl-7-(1-methyl-1H-pyrazol-4-yl)-5-(4-(trifluoromethoxy)phenyl)-1,5-dihydro-4H-imidazo[4,5-c]pyridin-4-one, mono-tosylate salt]
[1]
  reversibility of water adsorption within the timeframe of observation: essentially reversible
[2]; pH of solubility sample, pure water, 25° C., 24 hours
  pH (24 hrs): 1.53
[2]; pH of solubility sample, pure water, 25° C., one hour
  pH (1 hr): 1.47
[2]; pure water, 25° C., 24 hours equilibration
  S 24 hrs: 1.24 mg/mL
[2]; pure water, 25° C., one hour
  S 1 hr: 2.54 mg/mL
[2]; water, 25 °C, water, thermodynamic from solid, Table 5: free base and crystalline salt forms
  solubility at 24 h: 1240 µg/mL
[3]; [5]
  Plasma concentration of Compound I at 0.25 hours: 309 and 1500 and 2900 and 39.7 and 571
  Plasma concentration of Compound I at 0.5 hours: 3650 and 3910 and 5440 and 726 and 3520
  Plasma concentration of Compound I at 1 hour: 5470 and 7310 and 4880 and 5360
  Plasma concentration of Compound I at 2 hours: 9370 and 10200 and 5680 and 5450 and 4130
  Plasma concentration of Compound I at 4 hours: 8040 and 12900 and 4590 and 4840 and 3480
  Plasma concentration of Compound I at 8 hours: 3650 and 6910 and 2500 and 3060 and 1630
  Plasma concentration of Compound I at 24 hours: 597 and BLQ (3×)
  Plasma concentration of Compound I at 36 hours: 11.0 and 17.8 and BLQ (2×) and 842
  Plasma concentration of Compound I at 48 hours: BLQ (3×) and 200 and 10.1
[3]; [6]
  AUC0-last: 76500 ng·h/mL and 116000 ng·h/mL and 44300 ng·h/mL and 122000 ng·h/mL and 34200 ng·h/mL
  AUC0-rt: 76600 ng·h/mL and 116000 ng·h/mL and 44400 ng·h/mL and 123000 ng·h/mL and 34300 ng·h/mL
  Cmax: 9450 ng/mL and 12900 ng/mL and 7310 ng/mL and 5450 ng/mL and 5360 ng/mL
  tmax: 1.00 h
[3]; male, beagle, dog, plasma, po, 200 mg, mean
  AUC(0-t): 78500 ng·h/mL
[3]; male, beagle, dog, plasma, po, 200 mg, mean, read-out: AUC0-rt
  AUC: 78900 ng·h/mL
[3]; male, beagle, dog, plasma, po, 200 mg, mean, read-out: Cmax
  Cmax: 8100 ng/mL
[3]; male, beagle, dog, plasma, po, 200 mg, mean, read-out: tmax
  tmax: 1.8 h
[3]; [7]
  concentration at 1 h: 9450 ng/mL
  concentration at 24 h: 352 ng/mL
[3]; male, beagle, dog, plasma, po, 200 mg/tablet/dog, mean, LOQ 1.02 to 5.1 ng/mL, read-out: Plasma concentration of Compound I at 0.25 hours
  concentration at 0.25 h: 1060 ng/mL
[3]; male, beagle, dog, plasma, po, 200 mg/tablet/dog, mean, LOQ 1.02 to 5.1 ng/mL, read-out: Plasma concentration of Compound I at 0.5 hours
  concentration at 0.5 h: 3450 ng/mL
[3]; [8]
  concentration at 1 h: 6490 ng/mL
  concentration at 24 h: 1070 ng/mL
[3]; male, beagle, dog, plasma, po, 200 mg/tablet/dog, mean, LOQ 1.02 to 5.1 ng/mL, read-out: Plasma concentration of Compound I at 2 hours
  concentration at 2 h: 6960 ng/mL
[3]; male, beagle, dog, plasma, po, 200 mg/tablet/dog, mean, LOQ 1.02 to 5.1 ng/mL, read-out: Plasma concentration of Compound I at 4 hours
  concentration at 4 h: 6780 ng/mL
[3]; male, beagle, dog, plasma, po, 200 mg/tablet/dog, mean, LOQ 1.02 to 5.1 ng/mL, read-out: Plasma concentration of Compound I at 8 hours
  concentration at 8 h: 3550 ng/mL
[3]; male, beagle, dog, plasma, po, 200 mg/tablet/dog, mean, LOQ 1.02 to 5.1 ng/mL, read-out: Plasma concentration of Compound I at 36 hours
  concentration at 36 h: 290 ng/mL
[3]; male, beagle, dog, plasma, po, 200 mg/tablet/dog, mean, LOQ 1.02 to 5.1 ng/mL, read-out: Plasma concentration of Compound I at 48 hours
  concentration at 48 h: 105 ng/mL
[4]; [9]
  AUC0-last: 59000 ng·h/mL and 75300 ng·h/mL and 68500 ng·h/mL and 26200 ng·h/mL and 16000 ng·h/mL and 47500 ng·h/mL
  AUC0-rt: 59700 ng·h/mL and 70100 ng·h/mL and 26200 ng·h/mL and 47700 ng·h/mL
  Cmax: 5340 ng/mL and 8590 ng/mL and 5160 ng/mL and 4930 ng/mL and 3490 ng/mL and 5080 ng/mL
[4]; Example 20, fed dogs, individual subjects, LLOQ 20 ng/mL
  Plasma concentration of Compound I at 48 hours: BLQ
[4]; [10]
  Plasma concentration of Compound I at 0.25 hours: BLQ (4×) and 381 and 41.0
  Plasma concentration of Compound I at 1 hour: 107 and 6070 and 2340 and 3330 and 1200 and 97.9
  Plasma concentration of Compound I at 2 hours: 2010 and 8270 and 5160 and 4930 and 2020 and 5080
  Plasma concentration of Compound I at 4 hours: 5340 and 8590 and 4020 and 3770 and 3490 and 4530
  Plasma concentration of Compound I at 8 hours: 3240 and 4900 and 1480 and 1020 and 1200 and 2920
[4]; Example 20, fed dogs, mean, LLOQ 20 ng/mL
  Plasma concentration of Compound I at 48 hours: BLQ
[4]; male, beagle, dog, plasma, po, 200 mg, Example 20, fed dogs (high fat diet), individual subjects
  tmax: 4 h
[4]; [11]
  AUC(0-t): 48800 ng·h/mL
  tmax: 3 h
[4]; male, beagle, dog, plasma, po, 200 mg, Example 20, fed dogs (high fat diet), mean, read-out: AUC0-rt
  AUC: 50900 ng·h/mL
[4]; male, beagle, dog, plasma, po, 200 mg, Example 20, fed dogs (high fat diet), mean, read-out: Cmax
  Cmax: 5430 ng/mL
[4]; male, beagle, dog, plasma, po, 200 mg/tablet/dog, Example 20, fed dogs, mean, LLOQ 20 ng/mL, read-out: Plasma concentration of Compound I at 0.25 hours
  concentration at 0.25 h: 70.3 ng/mL
[4]; male, beagle, dog, plasma, po, 200 mg/tablet/dog, Example 20, fed dogs, mean, LLOQ 20 ng/mL, read-out: Plasma concentration of Compound I at 0.5 hours
  concentration at 0.5 h: 717 ng/mL
[4]; male, beagle, dog, plasma, po, 200 mg/tablet/dog, Example 20, fed dogs, mean, LLOQ 20 ng/mL, read-out: Plasma concentration of Compound I at 1 hour
  concentration at 1 h: 2190 ng/mL
[4]; male, beagle, dog, plasma, po, 200 mg/tablet/dog, Example 20, fed dogs, mean, LLOQ 20 ng/mL, read-out: Plasma concentration of Compound I at 2 hours
  concentration at 2 h: 4580 ng/mL
[4]; male, beagle, dog, plasma, po, 200 mg/tablet/dog, Example 20, fed dogs, mean, LLOQ 20 ng/mL, read-out: Plasma concentration of Compound I at 4 hours
  concentration at 4 h: 4960 ng/mL
[4]; male, beagle, dog, plasma, po, 200 mg/tablet/dog, Example 20, fed dogs, mean, LLOQ 20 ng/mL, read-out: Plasma concentration of Compound I at 8 hours
  concentration at 8 h: 2460 ng/mL
[4]; male, beagle, dog, plasma, po, 200 mg/tablet/dog, Example 20, fed dogs, mean, LLOQ 20 ng/mL, read-out: Plasma concentration of Compound I at 24 hours
  concentration at 24 h: 847 ng/mL
[4]; male, beagle, dog, plasma, po, 200 mg/tablet/dog, Example 20, fed dogs, mean, LLOQ 20 ng/mL, read-out: Plasma concentration of Compound I at 36 hours
  concentration at 36 h: 79.7 ng/mL
